Test systems include HCC-2998 colon; HCT-15 colon; MCF7 breast; NCI-H23 lung; OVCAR-3 ovarian; SK-OV-3 ovarian; T-47D breast; TK-10 renal; UACC-257 melanoma.
What all share (assay): NCI-60 cell line screen, 48 h

“And” between values parts separate entries of the source, which are not always exact repeats. Equal entries are not always repeated.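 All cell lines were grown in 96-well plates and treated with compound for 48 hours. GI50 is the concentration that inhibits growth by half. The concentration for full growth arrest is given as TGI.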 Bounds are passed on as bounds.

In the case of `COc1cc2[nH]c(-c3ccccc3)cc(=O)c2c(OC)c1OC`, the TGI with HCC-2998 colon, in the assay on HCT-15 colon, in the assay with MCF7 breast, in the assay with NCI-H23 lung, in the assay on OVCAR-3 ovarian and in the assay with SK-OV-3 ovarian was greater than 100 µM throughout. For the same molecule, the TGI in the assay on T-47D breast, in the assay on TK-10 renal and with UACC-257 melanoma was greater than 100 µM throughout.
Take `CCOP(=O)(OCC)OC1CC(n2cc(C)c(=O)n(C)c2=O)OC1CO[Si](C)(C)C(C)(C)C` (configuration not stated): the TGI in the assay on HCC-2998 colon, with HCT-15 colon, in the assay on MCF7 breast, with NCI-H23 lung, with OVCAR-3 ovarian and with SK-OV-3 ovarian was greater than 100 µM in each case. For the same molecule, the TGI with T-47D breast, in the assay on TK-10 renal and with UACC-257 melanoma was greater than 100 µM in each case.
`CCOC(=O)c1c(SCCN2CCOCC2)n(-c2ccccc2)c(=S)n(-c2ccccc2)c1=O`: the TGI with HCC-2998 colon was greater than 100 µM; in the assay on HCT-15 colon it was 45.7 µM; in the assay with MCF7 breast it was 41.5 µM; with NCI-H23 lung, 92.3 µM; in the assay on OVCAR-3 ovarian it was greater than 100 µM; in the assay on T-47D breast it was greater than 100 µM. The TGI in the assay on TK-10 renal was greater than 100 µM; in the assay on UACC-257 melanoma it was 48.1 µM.
With `COc1cc(C(O)c2ccc3c(c2)OCO3)cc(OC)c1OC` (configuration not stated), the TGI with HCC-2998 colon, with HCT-15 colon, in the assay with MCF7 breast, in the assay on NCI-H23 lung, in the assay on OVCAR-3 ovarian and in the assay on SK-OV-3 ovarian was greater than 100 µM throughout. Besides, the TGI in the assay on T-47D breast, in the assay with TK-10 renal and with UACC-257 melanoma was greater than 100 µM each time.
`Cc1cc(C)nc(NS(=O)(=O)c2ccc(NC(=O)c3cccc4c(NNc5ccc(S(=O)(=O)N=C(N)N)cc5)c5ccccc5nc34)cc2)n1`: the TGI in the assay on HCC-2998 colon, in the assay on HCT-15 colon, in the assay on MCF7 breast, in the assay with NCI-H23 lung, in the assay on OVCAR-3 ovarian and with SK-OV-3 ovarian was greater than 50 µM each time. Besides, the TGI with T-47D breast, in the assay with TK-10 renal and in the assay with UACC-257 melanoma was greater than 50 µM throughout.
As to `CCOC(=O)c1sc2ncnc(N)c2c1C`, the TGI with HCC-2998 colon, with HCT-15 colon, in the assay on MCF7 breast, in the assay on NCI-H23 lung, with OVCAR-3 ovarian and in the assay with SK-OV-3 ovarian was greater than 100 µM each time. Besides, the TGI with T-47D breast, in the assay on TK-10 renal and in the assay on UACC-257 melanoma was greater than 100 µM in each case.
In the case of `COc1cccc2c1OCC1Cc3ccccc3OC21` (configuration not stated), the TGI in the assay on HCC-2998 colon was greater than 100 µM; in the assay on HCT-15 colon, greater than 100 µM; with MCF7 breast, greater than 100 µM; in the assay on NCI-H23 lung it was greater than 100 µM; with OVCAR-3 ovarian, 88.8 µM; in the assay with SK-OV-3 ovarian, greater than 100 µM. The results for the TGI in the assay on T-47D breast, in the assay on TK-10 renal and in the assay with UACC-257 melanoma were greater than 100 µM, 72.8 µM and 65.3 µM, respectively.
Turning to `C=CCN1C(=O)/C(=C/c2ccc(C)cc2)N=C1SC1OC(COC(C)=O)C(OC(C)=O)C(OC(C)=O)C1OC(C)=O` (configuration not stated), the GI50 in the assay with HCC-2998 colon is > 100 µM and 35.6 µM; in the assay on HCT-15 colon, > 100 µM and 29.7 µM; with NCI-H23 lung it was > 100 µM and 27.1 µM; in the assay on OVCAR-3 ovarian, > 100 µM and 29.4 µM; in the assay on SK-OV-3 ovarian, > 100 µM and 28.9 µM; in the assay with UACC-257 melanoma, > 73 µM and 32.9 µM. For the same molecule, the TGI in the assay on HCC-2998 colon is greater than 100 µM; in the assay with HCT-15 colon, greater than 100 µM; with MCF7 breast, greater than 100 µM; in the assay on NCI-H23 lung it was greater than 100 µM; with OVCAR-3 ovarian, greater than 100 µM; in the assay on SK-OV-3 ovarian, > 100 µM and 85.4 µM. Moreover, the TGI in the assay on T-47D breast, in the assay with TK-10 renal and in the assay with UACC-257 melanoma was greater than 100 µM each time.
`O=C1CS(=O)(=O)C(c2cccc(Oc3ccccc3)c2)N1c1cc(Cl)ccc1Cl` (configuration not stated): the TGI in the assay with HCC-2998 colon was 37.1 µM; in the assay with HCT-15 colon it was 69.9 µM; in the assay with MCF7 breast it was 35.4 µM; in the assay with NCI-H23 lung it was greater than 100 µM; with OVCAR-3 ovarian, 35.1 µM; in the assay on SK-OV-3 ovarian, 48.9 µM. Also, the TGI in the assay with T-47D breast turned out to be 53.2 µM; in the assay on TK-10 renal, 90.6 µM; in the assay with UACC-257 melanoma, 55.9 µM.
On to `COc1ccc(OC)c2sc(N3C(=O)/C(=C/c4cccc([N+](=O)[O-])c4)N=C3c3ccccc3)nc12`, for which the TGI with HCC-2998 colon was greater than 100 µM; in the assay with HCT-15 colon it was greater than 100 µM; in the assay with MCF7 breast, 48.9 µM; with NCI-H23 lung, greater than 100 µM; with OVCAR-3 ovarian, greater than 100 µM; with SK-OV-3 ovarian, greater than 100 µM. Further, the TGI in the assay on T-47D breast was 64.2 µM; in the assay on TK-10 renal, greater than 100 µM; in the assay on UACC-257 melanoma, greater than 100 µM.
As to `CC#CC(O)(C(=O)OC1CC(C)N(C)C(C)(C)C1)C1CCCC1` (configuration not stated), the TGI with HCC-2998 colon, in the assay with HCT-15 colon, with MCF7 breast, with NCI-H23 lung, in the assay on OVCAR-3 ovarian and in the assay with SK-OV-3 ovarian was greater than 100 µM throughout. Moreover, the TGI in the assay on T-47D breast, with TK-10 renal and with UACC-257 melanoma was greater than 100 µM in each case.
Regarding `N#Cc1c(-c2ccccc2)c2c([nH]c1=O)-c1cc([N+](=O)[O-])ccc1CCC2`, the TGI in the assay on HCC-2998 colon was 48.2 µM; in the assay with HCT-15 colon, 61 µM; in the assay with MCF7 breast, 71.8 µM; with NCI-H23 lung, 71.1 µM; in the assay on OVCAR-3 ovarian it was 45 µM; with SK-OV-3 ovarian, greater than 100 µM. Also, the TGI is 52.2 µM with T-47D breast, greater than 100 µM in the assay with TK-10 renal and greater than 100 µM in the assay on UACC-257 melanoma.
In the case of `O=[N+]([O-])c1cc(Cl)ccc1Sc1ccccc1`, the TGI with HCC-2998 colon, with HCT-15 colon, with MCF7 breast, with NCI-H23 lung, with OVCAR-3 ovarian and in the assay on SK-OV-3 ovarian was greater than 100 µM each time. In addition, the TGI in the assay on T-47D breast, in the assay on TK-10 renal and in the assay with UACC-257 melanoma was greater than 100 µM each time.
On to `Nc1ccc(-c2nn3c(COc4ccc(Cl)cc4)nnc3s2)cc1`, for which the TGI in the assay on HCC-2998 colon, in the assay with HCT-15 colon, in the assay on MCF7 breast, in the assay with NCI-H23 lung, with OVCAR-3 ovarian and in the assay with SK-OV-3 ovarian was greater than 100 µM each time. The TGI in the assay on T-47D breast, with TK-10 renal and in the assay on UACC-257 melanoma was greater than 100 µM each time. In addition, the GI50 with MCF7 breast is 41 µM.

The record behind these values is PubChem BioAssay (NCI).
